Measured values published in US20240082223A1, “DIHYDROFUROPYRIDINE DERIVATIVES AS RHO- KINASE INHIBITORS” (CHIESI FARMACEUTICI S.P.A., priority 2020, published 2024).

Columns and labels:
ROCK2 = ROCK2 (Homo sapiens, UniProt O75116); assay: In vitro inhibitory activity assay ROCK2 (Method A, ADP-Glo, 10 μM ATP); type: biochemical; conditions: ATP 10 μM, read-out: Method A ROCK 2 (Ki)
Protocol: (§1) In vitro inhibitory activity assay description ROCK1 and ROCK2
(§2) The effectiveness of compounds of the present invention to inhibit Rho kinase activity can be determined in a 10 μl assay containing 40 mM Tris pH7.5, 20 mM MgCl2 0.1 mg/mL BSA, 50 μM DTT and 2.5 μM peptide substrate (Myelin Basic Protein) using an ADP-Glo kit (Promega). Compounds were dissolved in DMSO such that the final concentration of DMSO was 1% in the assay. All reactions/incubations are performed at 25° C. Compound (2 uL) and either Rho kinase 1 or 2 (4 μl) were mixed and incubated for 30 min. Reactions were initiated by addition of ATP (4 μL) such that the final concentration of ATP in the assay was 10 μM. After a 1 hour incubation […] of ADP-Glo Reagent was added and after a further 45 minutes incubation 20 uL of Kinase Detection Buffer was added and the mixture incubated for a further 30 minutes. The luminescent signal was measured on a luminometer. […] Compounds were tested in dose-response format and the inhibition of kinase activity was calculated at each concentration of compound. To determine the IC50 (concentration of compound required to inhibit 50% of the enzyme activity) data were fit to a plot of % inhibition vs Log10 compound concentration using a sigmoidal fit with a variable slope and fixing the maximum to 100% and the minimum to 0%. To determine the Ki values the Cheng-Prusoff equation was utilized (Ki=IC50/(1+[S]/Km).

ROCK1 = ROCK1 (Homo sapiens, UniProt Q13464); assay: In vitro inhibitory activity assay ROCK1 (Method A, ADP-Glo, 10 μM ATP); type: biochemical; conditions: ATP 10 μM, read-out: Method A ROCK 1 (Ki)
ROCK1, sequence (Q13464 whole entry): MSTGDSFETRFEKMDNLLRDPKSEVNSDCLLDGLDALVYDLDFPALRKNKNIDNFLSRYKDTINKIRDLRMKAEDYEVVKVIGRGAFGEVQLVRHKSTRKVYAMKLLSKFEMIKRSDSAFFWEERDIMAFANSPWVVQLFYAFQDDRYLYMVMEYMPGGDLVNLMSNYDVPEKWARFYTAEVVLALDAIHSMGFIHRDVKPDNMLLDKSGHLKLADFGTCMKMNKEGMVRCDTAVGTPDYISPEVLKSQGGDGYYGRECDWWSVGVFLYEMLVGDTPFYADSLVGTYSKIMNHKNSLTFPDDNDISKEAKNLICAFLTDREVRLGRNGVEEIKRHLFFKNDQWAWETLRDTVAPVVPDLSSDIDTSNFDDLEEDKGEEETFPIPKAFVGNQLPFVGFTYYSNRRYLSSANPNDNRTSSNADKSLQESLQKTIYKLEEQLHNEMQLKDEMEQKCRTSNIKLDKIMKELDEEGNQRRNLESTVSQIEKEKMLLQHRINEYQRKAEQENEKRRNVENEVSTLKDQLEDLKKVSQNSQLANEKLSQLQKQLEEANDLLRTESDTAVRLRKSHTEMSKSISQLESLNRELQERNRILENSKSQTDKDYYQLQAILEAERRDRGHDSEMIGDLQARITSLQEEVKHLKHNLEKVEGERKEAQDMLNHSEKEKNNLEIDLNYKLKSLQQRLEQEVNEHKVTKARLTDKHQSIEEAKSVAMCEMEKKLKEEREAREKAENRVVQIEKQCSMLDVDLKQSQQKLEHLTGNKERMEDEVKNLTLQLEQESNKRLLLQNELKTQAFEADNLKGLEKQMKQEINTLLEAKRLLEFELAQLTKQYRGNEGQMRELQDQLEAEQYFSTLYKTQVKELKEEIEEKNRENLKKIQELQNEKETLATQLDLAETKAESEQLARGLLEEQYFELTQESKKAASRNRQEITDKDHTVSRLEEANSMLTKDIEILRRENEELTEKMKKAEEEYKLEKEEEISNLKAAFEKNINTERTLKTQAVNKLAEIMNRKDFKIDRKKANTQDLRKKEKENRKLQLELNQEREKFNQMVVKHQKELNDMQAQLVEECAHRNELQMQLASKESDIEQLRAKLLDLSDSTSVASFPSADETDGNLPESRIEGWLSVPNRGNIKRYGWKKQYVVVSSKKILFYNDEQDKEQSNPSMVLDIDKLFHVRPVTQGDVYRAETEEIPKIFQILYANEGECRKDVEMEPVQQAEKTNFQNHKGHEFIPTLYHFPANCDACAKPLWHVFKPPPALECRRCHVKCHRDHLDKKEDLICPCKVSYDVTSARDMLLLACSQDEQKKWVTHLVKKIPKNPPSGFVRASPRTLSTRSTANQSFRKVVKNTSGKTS
Protocol: as §1, §2

ROCK2, sequence (O75116 whole entry): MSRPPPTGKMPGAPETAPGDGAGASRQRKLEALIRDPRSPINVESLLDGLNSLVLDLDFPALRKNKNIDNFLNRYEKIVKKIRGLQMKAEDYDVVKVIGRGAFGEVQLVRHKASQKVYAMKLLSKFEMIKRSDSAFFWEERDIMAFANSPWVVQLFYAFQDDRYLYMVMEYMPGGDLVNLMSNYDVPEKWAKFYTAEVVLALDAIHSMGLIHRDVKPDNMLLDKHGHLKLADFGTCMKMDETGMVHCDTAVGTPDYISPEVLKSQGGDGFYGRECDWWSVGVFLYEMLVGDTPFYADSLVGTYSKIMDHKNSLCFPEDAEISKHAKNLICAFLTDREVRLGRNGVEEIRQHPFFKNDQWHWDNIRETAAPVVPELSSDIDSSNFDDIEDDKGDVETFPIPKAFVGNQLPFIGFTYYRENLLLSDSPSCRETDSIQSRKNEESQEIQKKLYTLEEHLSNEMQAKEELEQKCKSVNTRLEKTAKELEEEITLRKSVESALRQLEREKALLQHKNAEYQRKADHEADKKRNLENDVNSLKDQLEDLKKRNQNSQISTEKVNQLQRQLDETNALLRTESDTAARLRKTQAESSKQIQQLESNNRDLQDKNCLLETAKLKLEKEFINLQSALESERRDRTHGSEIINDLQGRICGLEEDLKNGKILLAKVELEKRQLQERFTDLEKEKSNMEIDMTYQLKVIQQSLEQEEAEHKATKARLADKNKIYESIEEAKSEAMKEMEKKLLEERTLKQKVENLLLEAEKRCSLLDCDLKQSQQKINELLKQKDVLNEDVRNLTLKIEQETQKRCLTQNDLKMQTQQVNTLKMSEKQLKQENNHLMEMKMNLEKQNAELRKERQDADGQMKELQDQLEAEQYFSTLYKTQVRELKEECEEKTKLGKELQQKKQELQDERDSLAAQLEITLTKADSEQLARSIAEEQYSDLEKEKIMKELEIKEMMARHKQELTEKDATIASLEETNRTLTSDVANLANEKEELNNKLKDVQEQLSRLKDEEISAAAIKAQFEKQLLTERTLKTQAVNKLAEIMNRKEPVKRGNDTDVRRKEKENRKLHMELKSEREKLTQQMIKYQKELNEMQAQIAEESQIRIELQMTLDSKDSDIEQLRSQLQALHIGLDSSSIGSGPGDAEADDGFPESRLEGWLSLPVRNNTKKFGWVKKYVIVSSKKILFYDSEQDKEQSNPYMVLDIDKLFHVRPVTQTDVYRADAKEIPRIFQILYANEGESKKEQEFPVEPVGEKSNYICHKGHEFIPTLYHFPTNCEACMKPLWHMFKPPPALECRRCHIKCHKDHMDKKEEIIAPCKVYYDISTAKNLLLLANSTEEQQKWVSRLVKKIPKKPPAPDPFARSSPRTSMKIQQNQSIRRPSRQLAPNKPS

| Compound | Ki (ROCK2) [nM] | Ki (ROCK1) [nM] |
| --- | --- | --- |
| O=C(NC1CCN(CCc2ccccc2)CC1)c1cccc(CNc2ncc(-c3cn[nH]c3)c3c2CCO3)c1 [Example 26, 3-(((7-(1H-pyrazol-4-yl)-2,3-dihydrofuro[3,2-c]pyridin-4-yl)amino)methyl)-N-(1-phenethylpiperidin-4-yl)benzamide] | ≤ 3 | ≤ 3 |
| CN1CCc2sc(C(=O)Nc3cccc(CNc4ncc(-c5cn[nH]c5)c5c4CCO5)c3)nc2C1 [Example 36, N-(3-(((7-(1H-pyrazol-4-yl)-2,3-dihydrofuro[3,2-c]pyridin-4-yl)amino)methyl)phenyl)-5-methyl-4,5,6,7-tetrahydrothiazolo[4,5-c]pyridine-2-carboxamide] | ≤ 3 | ≤ 3 |
| CN1CCc2nc(NC(=O)c3cccc(CNc4ncc(-c5cn[nH]c5)c5c4CCO5)c3)sc2C1 [Example 21, 3-(((7-(1H-pyrazol-4-yl)-2,3-dihydrofuro[3,2-c]pyridin-4-yl)amino)methyl)-N-(5-methyl-4,5,6,7-tetrahydrothiazolo[5,4-c]pyridin-2-yl)benzamide] | ≤ 3 | ≤ 3 |
| Cn1ncc2cc(C(=O)Nc3cccc(CNc4ncc(-c5cn[nH]c5)c5c4CCO5)c3)ccc21 [Example 39, N-(3-(((7-(1H-pyrazol-4-yl)-2,3-dihydrofuro[3,2-c]pyridin-4-yl)amino)methyl)phenyl)-1-methyl-1H-indazole-5-carboxamide] | ≤ 3 | ≤ 3 |
| CN(C)Cc1ccc(C(=O)Nc2cccc(CNc3ncc(-c4cn[nH]c4)c4c3CCO4)c2)cc1 [Example 35, N-(3-(((7-(1H-Pyrazol-4-yl)-2,3-dihydrofuro[3,2-c]pyridin-4-yl)amino)methyl)phenyl)-4-((dimethylamino)methyl)benzamide] | ≤ 3 | ≤ 3 |
| O=C(NCCc1cccnc1)c1cccc(CNc2ncc(-c3cn[nH]c3)c3c2CCO3)c1 [Example 22, 3-(((7-(1H-pyrazol-4-yl)-2,3-dihydrofuro[3,2-c]pyridin-4-yl)amino)methyl)-N-(2-(pyridin-3-yl)ethyl)benzamide] | ≤ 3 | ≤ 3 |
| CN(C)CCn1cc(NC(=O)c2cccc(CNc3ncc(-c4cn[nH]c4)c4c3CCO4)c2)cn1 [Example 27, 3-(((7-(1H-pyrazol-4-yl)-2,3-dihydrofuro[3,2-c]pyridin-4-yl)amino)methyl)-N-(1-(2-(dimethylamino)ethyl)-1H-pyrazol-4-yl)benzamide] | ≤ 3 | ≤ 3 |
| CN1CCc2nc(C(=O)Nc3cccc(CNc4ncc(-c5cn[nH]c5)c5c4CCO5)c3)sc2C1 [Example 37, N-(3-(((7-(1H-pyrazol-4-yl)-2,3-dihydrofuro[3,2-c]pyridin-4-yl)amino)methyl)phenyl)-5-methyl-4,5,6,7-tetrahydrothiazolo[5,4-c]pyridine-2-carboxamide] | ≤ 3 | ≤ 3 |
| O=C(NC1CCN(Cc2ccccc2)CC1)c1cccc(CNc2ncc(-c3cn[nH]c3)c3c2CCO3)c1 [Example 54, 3-(((7-(1H-pyrazol-4-yl)-2,3-dihydrofuro[3,2-c]pyridin-4-yl)amino)methyl)-N-(1-benzylpiperidin-4-yl)benzamide] | ≤ 3 | ≤ 3 |
| CN1CCc2nc(CNC(=O)c3cccc(CNc4ncc(-c5cn[nH]c5)c5c4CCO5)c3)sc2C1 [Example 29, 3-(((7-(1H-pyrazol-4-yl)-2,3-dihydrofuro[3,2-c]pyridin-4-yl)amino)methyl)-N-((5-methyl-4,5,6,7-tetrahydrothiazolo[5,4-c]pyridin-2-yl)methyl)benzamide] | ≤ 3 | 3 to 30 |
| CN1CCc2cc(C(=O)Nc3cccc(CNc4ncc(-c5cn[nH]c5)c5c4CCO5)c3)cnc2C1 [Example 51, N-(3-(((7-(1H-pyrazol-4-yl)-2,3-dihydrofuro[3,2-c]pyridin-4-yl)amino)methyl)phenyl)-7-methyl-5,6,7,8-tetrahydro-1,7-naphthyridine-3-carboxamide] | ≤ 3 | ≤ 3 |
| CN(C)Cc1cccc(NC(=O)c2cccc(CNc3ncc(-c4cn[nH]c4)c4c3CCO4)c2)c1 [Example 18, 3-(((7-(1H-pyrazol-4-yl)-2,3-dihydrofuro[3,2-c]pyridin-4-yl)amino)methyl)-N-(3-((dimethylamino)methyl)phenyl)benzamide] | ≤ 3 | ≤ 3 |
| O=C(NCCN1CCOCC1)c1cccc(CNc2ncc(-c3cn[nH]c3)c3c2CCO3)c1 [Example 20, 3-(((7-(1H-pyrazol-4-yl)-2,3-dihydrofuro[3,2-c]pyridin-4-yl)amino)methyl)-N-(2-morpholinoethyl)benzamide] | ≤ 3 | ≤ 3 |
| CN(C)Cc1cccc(C(=O)Nc2cccc(CNc3ncc(-c4cn[nH]c4)c4c3CCO4)c2)c1 [Example 49, N-(3-(((7-(1H-pyrazol-4-yl)-2,3-dihydrofuro[3,2-c]pyridin-4-yl)amino)methyl)phenyl)-3-((dimethylamino)methyl)benzamide] | ≤ 3 | ≤ 3 |
| O=C(Nc1cccc(CNc2ncc(-c3cn[nH]c3)c3c2CCO3)c1)c1nc2c(s1)CN(CCO)CC2 [Example 38, N-(3-(((7-(1H-pyrazol-4-yl)-2,3-dihydrofuro[3,2-c]pyridin-4-yl)amino)methyl)phenyl)-5-(2-hydroxyethyl)-4,5,6,7-tetrahydrothiazolo[5,4-c]pyridine-2-carboxamide] | ≤ 3 | ≤ 3 |
| O=C(Nc1cc(CNc2ncc(-c3cn[nH]c3)c3c2CCO3)ccc1F)c1ccc2c(c1)CCNC2 [Example 47, N-(5-(((7-(1H-pyrazol-4-yl)-2,3-dihydrofuro[3,2-c]pyridin-4-yl)amino)methyl)-2-fluorophenyl)-1,2,3,4-tetrahydroisoquinoline-6-carboxamide] | ≤ 3 | ≤ 3 |
| O=C(N[C@H](CO)c1ccccc1)c1cccc(CNc2ncc(-c3cn[nH]c3)c3c2CCO3)c1 [Example 23, (S)-3-(((7-(1H-pyrazol-4-yl)-2,3-dihydrofuro[3,2-c]pyridin-4-yl)amino)methyl)-N-(2-hydroxy-1-phenylethyl)benzamide] | ≤ 3 | ≤ 3 |
| CN1Cc2ccc(CNC(=O)c3cccc(CNc4ncc(-c5cn[nH]c5)c5c4CCO5)c3)cc2C1 [Example 30, 3-(((7-(1H-pyrazol-4-yl)-2,3-dihydrofuro[3,2-c]pyridin-4-yl)amino)methyl)-N-((2-methylisoindolin-5-yl)methyl)benzamide] | ≤ 3 | ≤ 3 |
| O=C(NCCc1ccncc1)c1cccc(CNc2ncc(-c3cn[nH]c3)c3c2CCO3)c1 [Example 17, 3-(((7-(1H-pyrazol-4-yl)-2,3-dihydrofuro[3,2-c]pyridin-4-yl)amino)methyl)-N-(2-(pyridin-4-yl)ethyl)benzamide] | ≤ 3 | ≤ 3 |
| O=C(Nc1cccc(CNc2ncc(-c3cn[nH]c3)c3c2CCO3)c1)c1ccc2c(c1)CCNC2 [Example 40, N-(3-(((7-(1H-pyrazol-4-yl)-2,3-dihydrofuro[3,2-c]pyridin-4-yl)amino)methyl)phenyl)-1,2,3,4-tetrahydroisoquinoline-6-carboxamide] | ≤ 3 | ≤ 3 |
| Cn1nc(C(=O)Nc2cccc(CNc3ncc(-c4cn[nH]c4)c4c3CCO4)c2)c2ccccc21 [Example 41, N-(3-(((7-(1H-pyrazol-4-yl)-2,3-dihydrofuro[3,2-c]pyridin-4-yl)amino)methyl)phenyl)-1-methyl-1H-indazole-3-carboxamide] | 3 to 30 | > 30 |
